# Earlier results, collected in patent US20210077540A1, “BIOACTIVE GREEN-LIPPED MUSSEL EXTRACTS AND USES THEREOF” (SANFORD LIMITED, priority 2018, published 2021).
# Legend:
# [1] = supplementation, women with gestational hypertension incl. pre-eclampsia
# [2] = oral supplementation, meta-analysis of randomized, double-blind, placebo-controlled trials
smiles,measurement,setting,value
N=C(N)NCCC[C@H](N)C(=O)O [L-arginine],effect on diastolic blood pressure (in words),[1],reduces diastolic blood pressure
same,effect on length of pregnancy (in words),[1],lengthens pregnancy
same,"reduction of diastolic blood pressure, pooled estimate",[2],2.7 mmHg
same,"reduction of systolic blood pressure, pooled estimate",[2],5.4 mmHg
